Assay: Pharmacokinetic study in rats, pulmonary insufflation versus intravenous injection
Assay type: in vivo, male Sprague Dawley rats
Details: 0.8 mg/kg single dose; lung samples 10-240 minutes post administration; FIG. 5
Protocol: Pharmacokinetic studies in rats with Compound I crystalline composite (XC) dry powders—Insufflation studies were performed in rats to deliver doses of dry powders of Compound I, a protein kinase antagonist. The study was performed to determine the pharmacokinetics profile of Compound I dry powders made by the process as described above following pulmonary insufflation, or intravenous injection of a single dose of the composition administered in solution to male Sprague Dawley (Charles River Laboratories) adult rats, weighing between 200 g and 250 g at the time of the study. Dry powder comprising 22.1 wt % actual drug content were used and tested at 1 mg/ml in solution to deliver a dose of 0.8 mg/kg to 18 rats in each study group. Rats acclimatized and anesthetized prior to experimentation. Lung and blood samples were taken from the rats at 10, 20, 30, 120, and 240 minutes, post drug administration.

With `Cc1cccc(-n2ncc(C)c2-c2cc3cnccc3s2)n1` [Compound I, 2-[4-methyl-1-(6-methylpyridin-2-yl)-1H-pyrazol-5-yl]thieno-[3,2-c]pyridine] as the molecule, how does the “content of Compound I in rat lung, insufflation versus IV injection” value read?
Its value is “a higher content of Compound I was detected in rat lung after insufflation versus IV injection for a longer period of time”.

Source: patent US20250352530A1, “METHOD AND COMPOSITION FOR TREATING LUNG DISEASES” (MannKind Corporation, priority 2024, published 2025)
